# Reference: patent publication US20160039880A1 (priority 2012, published 2016)
# Like-named read-outs stand apart in the source and are kept apart here. Starred links: 1 amine or outer side, 2 acyl side, 3 side chain; linkers in the order of their positions; H or OH if unused. Non-standard residues stand in square brackets, D forms with d. Residues, ends and D or L forms follow the SMILES beside them. X2 = CC(CCN1CCOCC1)C(O)C(C(=O)[*:2])N(C)[*:1]; X1 = CCN(C(C(=O)[*:2])C(C)C)[*:1]; NMeL = CN[CH](CC(C)C)C(=O)O; NMeV = CN[CH](C(=O)O)C(C)C; NMeA = CN[CH](C)C(=O)O; Abu = CC[CH](N)C(=O)O
# Experiments:
# [1] = Water Solubility Assay (measured in pH 7.8 buffer); assay type: physicochemical;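 further: precipitation onset detected as rise in absorbance at 650 nm across increasing concentrations, after shaking for 18 h, blank wells receiving DMSO only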
# Description: The aqueous solubility of a compound of Formula I in buffer (pH 7.8) was measured by recording the onset of precipitation of the compound as a function of increasing concentration. The onset of precipitation, if it occurred, was detected by an increase in absorbance at 650 nm.
# Assay Buffer: 35 mM HEPES pH 7.8
# Stock solutions of Control and Test Compounds: 10 mM in 100% DMSO
# 10 mM stock solutions of control and test compounds were prepared in 100% DMSO.
# Assay buffer (247.5 μl) was placed into flat bottomed transparent 96-well plate. For blank samples DMSO (2.5 μl) was added. For test and control samples 2.5 μl of the appropriate DMSO dilution stocks were added to the appropriate well. All test and control compounds were performed in triplicate.
# The plates were sealed with adhesive plate seal and shaken at 250 rpm at 25° C. for 18 h on a plate shaker.
# After incubation the plate seals were taken off and any bubbles observed in wells removed. The plates were read on a SpectraMaxM5 with a 5 s pre-shake at 650 nm.
# Data files were transferred to the appropriate worksheet and the solubility range of the compounds was calculated from the data.
# [2] = target: T1, Human recombinant cyclophilin A (Cyp A) (Homo sapiens, UniProt P62937); assay: Protease-free PPIase assay; settings: read-out: Protease-free PPIase Assay Ki;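 further: cis to trans isomerization of SUC-AAPF-pNA by 2 nM enzyme, read as absorbance at 330 nm over 300 s at 10 °C, catalytic rate corrected for uncatalyzed background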
# Calcineurin = Calcineurin (Homo sapiens, UniProt P62937+P63098+Q08209); assay: Calcineurin Phosphatase (CaN) Assay with Cyp A (+CypA); settings: read-out: Calcineurin Phosphatase (CaN) Assay (+CypA) IC50, in the presence of Cyp A
# [3] = target: T1, Human recombinant cyclophilin A (Cyp A)
# [4] = Cyclophilin A (Cyp A) inhibitory activity
# [5] = 35 mM HEPES pH 7.8, 1% DMSO, 25 °C, 18 h, read-out: Water Solubility Assay, concentration at which the compound remains in solution
# T1 sequence (P62937 whole entry): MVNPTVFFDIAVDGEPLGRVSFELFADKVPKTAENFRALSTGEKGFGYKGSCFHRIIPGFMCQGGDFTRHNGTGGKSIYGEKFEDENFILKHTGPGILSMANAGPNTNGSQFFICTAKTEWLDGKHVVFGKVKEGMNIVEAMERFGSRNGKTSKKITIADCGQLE
# Chain of Calcineurin (P63098 whole entry, other chains not shown): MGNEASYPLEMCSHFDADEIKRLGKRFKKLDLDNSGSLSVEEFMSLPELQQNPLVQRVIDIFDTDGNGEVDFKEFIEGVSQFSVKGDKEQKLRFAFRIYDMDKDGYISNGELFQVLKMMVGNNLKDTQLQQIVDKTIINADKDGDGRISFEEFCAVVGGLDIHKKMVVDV
# Chain of Calcineurin (P62937 whole entry, other chains not shown): as the sequence (P62937 whole entry) above
SMILES,"Ki [2, 4] [nM]",IC50 (Calcineurin) [nM],"solubility at 18 h [1, 5] [µM]","Ki ([2]; cyclophilin A, 10 °C) [nM]",IC50 (Calcineurin; 1:1 complex with inhibitor) [nM],also measured
"CCC1NC(=O)C(C(O)C(C)CCN2CCOCC2)N(C)C(=O)C(C(C)C)N(C)C(=O)C(CC(C)C)N(C)C(=O)C(CC(C)C)N(C)C(=O)C(C)NC(=O)C(C)NC(=O)C(CC(C)C)N(C)C(=O)C(C(C)C)NC(=O)C(C(C)C)N(CC)C(=O)C(C)N(C)C1=O [Compound EJ, [(3R,4R,5S)-4-Hydroxy-3-methyl-1-(morpholin-4-yl)-hexanoic acid]^1[(R)-methyl-Sar]^3[Ethyl-Val]^4 cyclosporin A] (cyclo([X1]V[NMeL]AA[NMeL][NMeL][NMeV][X2][Abu][NMeA]); configuration not given here)",9,> 10000,,,,"solubility at 18 h ([1]; pH 7.8 buffer, read-out: Water Solubility Assay): >100 µM"
"CCC1NC(=O)C(C(O)C(C)CCN2CCOCC2)N(C)C(=O)C(C(C)C)N(C)C(=O)C(CC(C)C)N(C)C(=O)C(CC(C)C)N(C)C(=O)C(C)NC(=O)C(C)NC(=O)C(CC(C)C)N(C)C(=O)C(C(C)C)NC(=O)C(CC(C)C)N(C)C(=O)C(CC)N(C)C1=O [Compound AB, [(3R,4R,5S)-4-hydroxy-3-methyl-5-(methylamino)-1-N-morpholino-hexanoic acid]^1[(R)-ethyl-Sar]^3 cyclosporin A]",,,>100,5.6,> 10000,
"CCC1NC(=O)C(C(O)C(C)CCN2CCCOCC2)N(C)C(=O)C(C(C)C)N(C)C(=O)C(CC(C)C)N(C)C(=O)C(CC(C)C)N(C)C(=O)C(C)NC(=O)C(C)NC(=O)C(CC(C)C)N(C)C(=O)C(C(C)C)NC(=O)C(CC(C)C)N(C)C(=O)C(COCCN(CC)CC)N(C)C1=O [Compound AD, [(3R,4R,5S)-4-Hydroxy-3-methyl-5-(methylamino)-1-N-homomorpholino-hexanoic acid]^1[(R)-2-diethylaminoethyloxymethyl-Sar]^3 cyclosporin A]",,,,18,> 10000,
"CC[C@H]1NC(=O)[C@@H]([C@H](O)[C@H](C)CCCC(=O)N2CCOCC2)N(C)C(=O)[C@@H](C(C)C)N(C)C(=O)[C@@H](CC(C)C)N(C)C(=O)[C@@H](CC(C)C)N(C)C(=O)[C@H](C)NC(=O)[C@@H](C)NC(=O)[C@@H](CC(C)C)N(C)C(=O)[C@@H](C(C)C)NC(=O)[C@H](CC(C)C)N(C)C(=O)[C@@H](C)N(C)C1=O [Compound H, [(5R,6R,7S)-6-hydroxy-5-methyl-7-(methylamino)-1-N-morpholino-1-oxo-octanoic acid]^1[(R)-methyl-Sar]^3 cyclosporin A]",,,>100,3.9,> 10000,
"CC[C@H]1NC(=O)[C@@H]([C@H](O)[C@H](C)CCN2CCOCC2)N(C)C(=O)[C@@H](C(C)C)N(C)C(=O)[C@@H](CC(C)C)N(C)C(=O)[C@@H](CC(C)C)N(C)C(=O)[C@H](C)NC(=O)[C@@H](C)NC(=O)[C@@H](CC(C)C)N(C)C(=O)[C@@H](C(C)C)NC(=O)[C@H](CC(C)C)N(C)C(=O)[C@@H](SC)N(C)C1=O [Compound K, [(3R,4R,5S)-4-hydroxy-3-methyl-5-(methylamino)-1-N-morpholino-hexanoic acid]^1[(S)-thiomethyl-Sar]^3 cyclosporin A]",,,,,> 10000,
"CCC1NC(=O)C(C(O)C(C)CCN2CCOCC2C(F)(F)F)N(C)C(=O)C(C(C)C)N(C)C(=O)C(CC(C)C)N(C)C(=O)C(CC(C)C)N(C)C(=O)C(C)NC(=O)C(C)NC(=O)C(CC(C)C)N(C)C(=O)C(C(C)C)NC(=O)C(CC(C)C)N(C)C(=O)C(C)N(C)C1=O (mixture of isomers) [Compound EC, [(3R,4R,5S)-4-Hydroxy-3-methyl-5-(methylamino)-1-(3-trifluoromethyl-morpholin-4-yl)-hexanoic acid]^1[(R)-methyl-Sar]^3 cyclosporin A]",5.2,> 10000,,,,
"CC[C@H]1NC(=O)[C@@H]([C@H](O)[C@H](C)CCCCCN2CCOCC2)N(C)C(=O)[C@@H](C(C)C)N(C)C(=O)[C@@H](CC(C)C)N(C)C(=O)[C@@H](CC(C)C)N(C)C(=O)[C@H](C)NC(=O)[C@@H](C)NC(=O)[C@@H](CC(C)C)N(C)C(=O)[C@@H](C(C)C)NC(=O)[C@H](CC(C)C)N(C)C(=O)[C@@H](C)N(C)C1=O [Compound G, [(6R,7R,8S)-7-hydroxy-6-methyl-8-(methylamino)-1-N-morpholino-nonanoic acid]^1[(R)-methyl-Sar]^3 cyclosporin A]",,,>100,6.2,> 10000,
"CCC1NC(=O)C(C(O)C(C)CCN2CCCCC2C(F)(F)F)N(C)C(=O)C(C(C)C)N(C)C(=O)C(CC(C)C)N(C)C(=O)C(CC(C)C)N(C)C(=O)C(C)NC(=O)C(C)NC(=O)C(CC(C)C)N(C)C(=O)C(C(C)C)NC(=O)C(CC(C)C)N(C)C(=O)C(C)N(C)C1=O (mixture of isomers) [Compound EB, [(3R,4R,5S)-4-Hydroxy-3-methyl-5-(methylamino)-1-(2-trifluoromethyl-piperidin-1-yl)-hexanoic acid]^1[(R)-methyl-Sar]^3 cyclosporin A]",3.7,> 10000,,,,
"CC[C@H]1NC(=O)[C@@H]([C@H](O)[C@H](C)CCCC(=O)N2CCOCC2)N(C)C(=O)[C@@H](C(C)C)N(C)C(=O)[C@@H](CC(C)C)N(C)C(=O)[C@@H](CC(C)C)N(C)C(=O)[C@H](C)NC(=O)[C@@H](C)NC(=O)[C@@H](CC(C)C)N(C)C(=O)[C@@H](C(C)C)NC(=O)[C@H](CC(C)C)N(C)C(=O)CN(C)C1=O [Compound E, [(5R,6R,7S)-6-hydroxy-5-methyl-7-(methylamino)-1-N-morpholino-1-oxo-octanoic acid]^1 cyclosporin A]",,,,,> 10000,
"CC[C@H]1NC(=O)[C@@H]([C@H](O)[C@H](C)CCCC(=O)N2CCN(C)CC2)N(C)C(=O)[C@@H](C(C)C)N(C)C(=O)[C@@H](CC(C)C)N(C)C(=O)[C@@H](CC(C)C)N(C)C(=O)[C@H](C)NC(=O)[C@@H](C)NC(=O)[C@@H](CC(C)C)N(C)C(=O)[C@@H](C(C)C)NC(=O)[C@H](CC(C)C)N(C)C(=O)[C@@H](C)N(C)C1=O [Compound T, [(5R,6R,7S)-6-hydroxy-5-methyl-7-(methylamino)-1-(4-methylpiperazin-1-yl)-1-oxo-octanoic acid]^1[(R)-methyl-Sar]^3 cyclosporin A]",,,>100,,,Ki [3]: 5 nM
"CCC1NC(=O)C(C(O)C(C)CCN2CCn3cc(C(F)(F)F)nc3C2)N(C)C(=O)C(C(C)C)N(C)C(=O)C(CC(C)C)N(C)C(=O)C(CC(C)C)N(C)C(=O)C(C)NC(=O)C(C)NC(=O)C(CC(C)C)N(C)C(=O)C(C(C)C)NC(=O)C(CC(C)C)N(C)C(=O)C(C)N(C)C1=O [Compound EE, [(3R,4R,5S)-4-Hydroxy-3-methyl-5-(methylamino)-1-(2-trifluoromethyl-5,6-dihydro-8H-imidazo[1,2-a]pyrazin-7-yl)-hexanoic acid]^1[(R)-methyl-Sar]^3 cyclosporin A]",9.1,> 10000,,,,
"CCC1NC(=O)C(C(O)C(C)CCN2CCCN(C)CC2)N(C)C(=O)C(C(C)C)N(C)C(=O)C(CC(C)C)N(C)C(=O)C(CC(C)C)N(C)C(=O)C(C)NC(=O)C(C)NC(=O)C(CC(C)C)N(C)C(=O)C(C(C)C)NC(=O)C(CC(C)C)N(C)C(=O)C(C)N(C)C1=O [Compound EG, [[(3R,4R,5S)-4-Hydroxy-3-methyl-5-(methylamino)-1-(4-methyl-[1,4]diazepan-1-yl)-hexanoic acid]^1[(R)-methyl-Sar]^3 cyclosporin A]",,,,,,"solubility at 18 h ([1]; pH 7.8, read-out: Water Solubility Assay): >100 µM; Ki [3]: 8.2 nM"
"CC[C@H]1NC(=O)[C@@H]([C@H](O)[C@H](C)CCCC(=O)NCCOC)N(C)C(=O)[C@@H](C(C)C)N(C)C(=O)[C@@H](CC(C)C)N(C)C(=O)[C@@H](CC(C)C)N(C)C(=O)[C@H](C)NC(=O)[C@@H](C)NC(=O)[C@@H](CC(C)C)N(C)C(=O)[C@@H](C(C)C)NC(=O)[C@H](CC(C)C)N(C)C(=O)[C@@H](C)N(C)C1=O [Compound ZY, [(5R,6R,7S)-6-hydroxy-5-methyl-7-(methylamino)-1-(2-methoxyethylamino)-1-oxo-octanoic acid]1[(R)-methyl-Sar]3 cyclosporin A]",,,,,,"Water Solubility Assay, concentration at which the compound remains in solution ([1]; 35 mM HEPES pH 7.8, 1% DMSO, 25 °C, 18 h): 75 to 100 µM; Ki [3]: 5.7 nM"
"CCC1NC(=O)C(C(O)C(C)CCN2CCCCO2)N(C)C(=O)C(C(C)C)N(C)C(=O)C(CC(C)C)N(C)C(=O)C(CC(C)C)N(C)C(=O)C(C)NC(=O)C(C)NC(=O)C(CC(C)C)N(C)C(=O)C(C(C)C)NC(=O)C(CC(C)C)N(C)C(=O)C(C)N(C)C1=O [Compound ED, [(3R,4R,5S)-4-Hydroxy-3-methyl-5-(methylamino)-1-([1,2]oxazinan-2-yl)-hexanoic acid]^1[(R)-methyl-Sar]^3 cyclosporin A]",3.8,> 10000,,,,
"CC[C@H]1NC(=O)[C@@H]([C@H](O)[C@H](C)CCCC(=O)N(CC)CC)N(C)C(=O)[C@@H](C(C)C)N(C)C(=O)[C@@H](CC(C)C)N(C)C(=O)[C@@H](CC(C)C)N(C)C(=O)[C@H](C)NC(=O)[C@@H](C)NC(=O)[C@@H](CC(C)C)N(C)C(=O)[C@@H](C(C)C)NC(=O)[C@H](CC(C)C)N(C)C(=O)[C@@H](C)N(C)C1=O [Compound U, [(5R,6R,7S)-6-hydroxy-5-methyl-7-(methylamino)-1-diethylamino-1-oxo-octanoic acid]^1[(R)-methyl-Sar]^3 cyclosporin A]",,,,4,> 10000,
"CCC1NC(=O)C(C(O)C(C)CCCC(=O)NCCc2c[nH]cn2)N(C)C(=O)C(C(C)C)N(C)C(=O)C(CC(C)C)N(C)C(=O)C(CC(C)C)N(C)C(=O)C(C)NC(=O)C(C)NC(=O)C(CC(C)C)N(C)C(=O)C(C(C)C)NC(=O)C(CC(C)C)N(C)C(=O)C(C)N(C)C1=O [Compound Y, [(5R,6R,7S)-6-hydroxy-5-methyl-7-(methylamino)-1-(2-{1H-imidazol-4-yl}-ethylamino)-1-oxo-octanoic acid]^1[(R)-methyl-Sar]^3 cyclosporin A]",,,>100,,,Ki [3]: 4.1 nM
